The values that follow come from patent publication US6444664B1, “Method for controlling the plasma level of lipoproteins to treat alzheimeris disease” (Nederlandse Organisatie voor Toegepast - Natuurweten …, priority 1997, dated 2002).

SMILES strings stand for the structures. Read-outs that look alike come from different tables or passages of the source.

Assay [1] deals with apo B-100. Put plainly: Apo B-100 synthesis by cultured cynomolgus (simian) hepatocytes, ELISA of medium. The class given is cell-based, cynomolgus monkey. Particulars: culture period 48 h to 72 h. For orientation: An ELISA detects its analyte on a solid surface through an enzyme-linked reagent.
Assay [2] has as its system apo A-I. Put plainly: Apo A-I synthesis by cultured cynomolgus (simian) hepatocytes, ELISA of medium. Type of assay: cell-based, cynomolgus monkey. The note with it: culture period 48 h to 72 h.
The test system of assay [3] is apo(a). Put plainly: Apo(a) synthesis by cultured cynomolgus (simian) hepatocytes, ELISA of medium. The class given is cell-based, cynomolgus monkey. Particulars: culture period 48 h to 72 h.
Assay [4] deals with apo(a). The assay can be described thus: Apo(a) synthesis by cultured human hepatocytes, ELISA of medium. The note with it: culture period 48 h to 72 h. Type of assay: cell-based.
The subject of assay [5] is apo A-I. The assay can be described thus: Apo A-I synthesis by cultured human hepatocytes, ELISA of medium. Type of assay: cell-based. Particulars: culture period 48 h to 72 h.
Assay [6] deals with apo A-I mRNA. Put plainly: Apo A-I mRNA levels in cynomolgus hepatocytes, RNA hybridization. The note with it: 100 μM, cultured 48 h. Type of assay: cell-based, cynomolgus monkey. The protocol: (§1) Total RNA was isolated from cynomolgus hepatocytes, cultured for 48 h in the presence or absence of the compounds, by the method of Chomczynski & Sacchi (33). After washing the RNA pellets with 70% (v/v) ethanol, RNA samples were dissolved in water. The RNA concentration in each sample was determined spectrophotometrically, assuming that one A260 unit corresponds with 40 μg RNA/mL. Equal amounts of total RNA (10 μg) from different incubations were fractionated by, elcctrophoresis in a 0.8% (w/v) agarose gel containing 0.27 M formaldehyde, and transferred to Hybond-N+ (Amershamn) in accordance with the manufacturer's instructions and UV cross-linked. Probes, labelling conditions and hybridization were performed as described previously in detail (25).
(§2) Apo(a) mRNAs were detected using a kringle IV synthetic double-stranded probe of 75 nucleotides with the sense sequence: GGGAATTCGAACCTGCCAAGCTTGGTCATCTATGACACCACACTCGCATAGTCGGACCCC AGAATAAAGCTTGGG, based on the sequence published by McLean et al (34). This probe was labelled by the random primer method according to Megaprime™ DNA labelling systems (Amersham). After hybridization, the blots were washed twice with 2×SSC/1% SDS (1×SSC=0.15 mol/L NaCl/0.015 mol/L sodium citrate, pH 7.0) and twice with 1×SSC/1% SDS for 30 min at 65° C. The blots were exposed to a Fuji imaging plate type BAS-MP for 1 to 24 h. The relative amounts of mRNA were quantified using a phospho-imager (Fuji Fujix BAS 1000) and the computer programs BAS-reader version 2.8 and TINA version 2.08 c.
(§3) Data shown in table 2 are obtained from measurements using RNA isolated from hepatocytes cultured for 48 h with or without the compounds.

In assay [7] the test system is apo(a) mRNA. Put plainly: Apo(a) mRNA levels in cynomolgus hepatocytes, RNA hybridization. Type of assay: cell-based, cynomolgus monkey. The note with it: 100 μM, cultured 48 h. The method, then:
as §1, §2, §3

The test system of assay [8] is apo B-100. Put plainly: Apo B-100 synthesis by cultured human hepatocytes, ELISA of medium. Particulars: culture period 48 h to 72 h. The class given is cell-based.
The subject of assay [9] is apo(a) mRNA. Put plainly: Apo(a) mRNA levels in human hepatocytes, RNA hybridization. The class given is cell-based. Particulars: 100 μM, cultured 48 h. The method, then:
as §1, §2, §3

Assay [10] deals with apo A-I mRNA. The assay can be described thus: Apo A-I mRNA levels in human hepatocytes, RNA hybridization. The class given is cell-based. Particulars: 100 μM, cultured 48 h.
The test system of assay [11] is lp(a). The note with it: cited from earlier work.

Take `COc1cc([C@@H]2OC[C@H](c3cc(OC)c(OC)c(OC)c3)O2)cc(OC)c1OC` (relative stereo) [Cisdioxolane, Cis-2,4-bis(3,4,5-trimethoxyphenyl)dioxolane, reference compound]: the “Apo B-100 synthesis” value in assay [1] (100 μM) is 99 ± 21 (3) % of control. Further, the “Apo A-I synthesis” value in assay [2] (100 μM) is on record as 229 ± 79 (2) % of control. The “Apo(a) synthesis” value in [3] (100 μM) is listed as 83 ± 2 (3) % of control.

Take `COc1cc([C@H]2CC[C@H](c3cc(OC)c(OC)c(OC)c3)O2)cc(OC)c1OC` (relative stereo) [L-652,731, Trans-2,5-bis(3,4,5-trimethoxyphenyl)tetrahydrofuran, reference compound]: the “Apo B-100 synthesis” value in [1] (100 μM) is reported as 76 ± 35 (2) % of control. Moreover, the “Apo A-I synthesis” value in assay [2] (100 μM) was 134 ± 1 (2) % of control. Also, the “Apo(a) synthesis” value in assay [3] (100 μM) is reported as 66 ± 8 (2) % of control.

For `CCCCCCCCCCCCCCCCCCNC(=O)OC[C@@H]1CC[C@H](COP(=O)([O-])OCC[n+]2cccc3ccccc32)O1` (relative stereo) [SRI 63-441, O-cis-5-(octadecylcarbamoyloxymethyl)-2-tetrahydrofurylmethyl O-(2-quinolinio-ethyl) hydrogen phosphate, reference compound], the “Apo B-100 synthesis” value in assay [1] (100 μM) is on record as 142 ± 32 (2) % of control. Also, the “Apo A-I synthesis” value in assay [2] (100 μM) was 166 ± 6 (2) % of control. Moreover, in [3] (100 μM), the “Apo(a) synthesis” value is reported as 24 ± 1 (2) % of control.

Take `COc1cc([C@@H]2OC[C@@H](c3cc(OC)c(OC)c(OC)c3)O2)cc(OC)c1OC` (relative stereo) [Transdioxolane, Trans-2,4-bis(3,4,5-trimethoxyphenyl)dioxolane, reference compound]: the results for the “Apo B-100 synthesis” value in assay [1] (30 μM) and in assay [1] (100 μM) were 117 ± 23 (3) % of control and 105 ± 7 (3) % of control, respectively. Also, the “Apo A-I synthesis” value in assay [2] (30 μM) was 116 ± 7 (3) % of control; in assay [2] (100 μM), 157 ± 2 (3) % of control. The “Apo(a) synthesis” value is recorded as 103 ± 9 (3) % of control in assay [3] (30 μM) and 60 ± 12 (3) % of control in assay [3] (100 μM).

For the compound `Cc1nnc2n1-c1sccc1C(c1ccccc1)=NC2` [Azepine 1], the “Apo(a) synthesis” value in assay [4] (3 μM) is listed as 75 (1) % of control; in [4] (10 μM), 48 (1) % of control; in assay [4] (30 μM), 24 (1) % of control; in [4] (100 μM), 14 (1) % of control; in [3] (3 μM), 85 ± 5 (2) % of control; in assay [3] (10 μM), 76 ± 19 (6) % of control. In addition, the “Apo(a) synthesis” value is listed as 48 ± 28 (6) % of control in [3] (30 μM) and 34 ± 32 (6) % of control in assay [3] (100 μM). Further, the “Apo A-I synthesis” value in [5] (3 μM) is 164 ± 61 (2) % of control; in [5] (10 μM), 283 ± 109 (2) % of control; in assay [5] (30 μM), 622 ± 228 (2) % of control; in [5] (100 μM), 721 ± 212 (2) % of control; in assay [2] (3 μM), 152 ± 30 (2) % of control; in [2] (10 μM) it was 185 ± 20 (6) % of control. Besides, the “Apo A-I synthesis” value is listed as 225 ± 45 (6) % of control in assay [2] (30 μM) and 367 ± 131 (6) % of control in assay [2] (100 μM). In addition, the “Apo A-I mRNA levels relative to GAPDH” value in assay [6] is 147 ± 28 (3) % of control; in assay [10] it was 111 (1) % of control. The “Apo A-I mRNA levels relative to actin” value in assay [6] is 328 ± 7 (3) % of control; in [10], 203 (1) % of control. For the same compound, the “Apo A-I mRNA levels relative to rRNA” value was 229 ± 8 (3) % of control in assay [6] and 308 (1) % of control in assay [10]. Besides, the entries for the “Apo(a) mRNA levels relative to GAPDH” value in assay [7] and in assay [9] were 39 ± 4 (3) % of control and 24 (1) % of control, respectively. For the same compound, the “Apo(a) mRNA levels relative to actin” value was 86 ± 7 (3) % of control in [7] and 44 (1) % of control in assay [9]. Further, the “Apo(a) mRNA levels relative to rRNA” value in [7] is 56 ± 12 (3) % of control; in assay [9], 67 (1) % of control. Besides, the “Apo B-100 synthesis” value in assay [8] (3 μM) is 83 ± 16 (2) % of control; in [8] (10 μM), 112 ± 3 (2) % of control; in assay [8] (30 μM) it was 109 ± 8 (2) % of control; in assay [8] (100 μM), 114 ± 8 (2) % of control; in [1] (3 μM) it was 117 ± 10 (2) % of control; in [1] (10 μM), 113 ± 20 (6) % of control. Moreover, the “Apo B-100 synthesis” value in [1] (30 μM) is reported as 106 ± 27 (6) % of control; in assay [1] (100 μM), 95 ± 23 (6) % of control.

Regarding `c1ccc(C2=NCc3nncn3-c3sccc32)cc1` [Azepine 2], the “Apo A-I synthesis” value in [2] (30 μM) is recorded as 178 (1) % of control. Further, in assay [3] (30 μM), the “Apo(a) synthesis” value is given as “no change”.

Regarding `Cc1nnc2n1-c1ccc(Cl)cc1C(c1ccccc1)=NC2C` (stereo not shown) [Azepine 3], the “Apo B-100 synthesis” value in assay [1] (100 μM) was 102 ± 32 (2) % of control. For the same compound, the “Apo A-I synthesis” value in assay [2] (100 μM) is 359 ± 74 (3) % of control. In assay [3] (100 μM), the “Apo(a) synthesis” value was 42 ± 20 (3) % of control.

As for `Brc1nnc2n1-c1ccccc1C(c1ccccc1)=NC2` [Azepine 4], the “Apo B-100 synthesis” value in [1] (100 μM) was 95 ± 23 (2) % of control. For the same compound, in [2] (100 μM), the “Apo A-I synthesis” value is listed as 390 ± 40 (2) % of control. The “Apo(a) synthesis” value in [3] (100 μM) is 62 ± 22 (2) % of control.

With `CC1C(=O)OC2C(O)C34C5CC(C(C)(C)C)C36C(OC(=O)C6O)OC4(C(=O)O5)C12O` (stereo not shown) [BN 52051, Ginkgolide B, reference compound], the “Apo B-100 synthesis” value in assay [1] (100 μM) was 113 ± 34 (2) % of control. The “Apo A-I synthesis” value in assay [2] (100 μM) is given as 144 ± 34 (2) % of control. For the same compound, in assay [3] (100 μM), the “Apo(a) synthesis” value is on record as 101 ± 1 (2) % of control.

On to `O=C(O)c1cccnc1` [nicotinic acid], for which the “Reduction of plasma levels of lp(a)” value is reported as roughly 38% in assay [11] (alone (4 g/day)); roughly 45% in assay [11] (in combination with neomycine (3 g/day and 2 g/day respectively)).
